Test results: ChEMBL document CHEMBL1201862, “PubChem BioAssay data set” (2004)
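The compound was tested at five concentrations on cells cultured in 96-well plates, with a 48-hour exposure period. GI50: concentration for 50% inhibition of growth.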 Active and inactive are the calls of the source. Rule as the data show it: active = GI50 up to about 1.1 µM and inactive = higher.

What was measured:
Experiment in all cases: DTP human tumour cell line panel, 48 h
[1] = tested on: EKVX
[2] = tested on: HCT-15
[3] = tested on: HL-60
[4] = tested on: HOP-62
[5] = tested on: HOP-92
[6] = tested on: IGROV-1
[7] = tested on: LOX IMVI
[8] = tested on: M14
[9] = tested on: MDA-MB-435
[10] = tested on: NCI-H23
[11] = tested on: NCI-H460
[12] = tested on: OVCAR-3
[13] = tested on: OVCAR-5
[14] = tested on: OVCAR-8
[15] = tested on: PC-3
[16] = tested on: SF-268
[17] = tested on: SK-MEL-2
[18] = tested on: SNB-19
[19] = tested on: UO-31
[20] = tested on: HCC 2998

| SMILES | GI50 [1] | GI50 [2] [µM] | GI50 [3] | GI50 [4] | GI50 [5] | GI50 [6] | GI50 [7] | GI50 [8] | GI50 [9] | GI50 [10] | GI50 [11] | GI50 [12] | GI50 [13] | GI50 [14] | GI50 [15] | GI50 [16] | GI50 [17] | GI50 [18] | GI50 [19] | GI50 [20] |
| --- | --- | --- | --- | --- | --- | --- | --- | --- | --- | --- | --- | --- | --- | --- | --- | --- | --- | --- | --- | --- |
| CN(CC(=O)O)c1ncc2c(n1)-c1ccccc1CC2 | > 100 µM (inactive) | > 100 | > 100 µM (inactive) | > 100 µM (inactive) | > 100 µM (inactive) | > 100 µM (inactive) | > 100 µM (inactive) | > 100 µM (inactive) | > 100 µM (inactive) | > 100 µM (inactive) | > 100 µM (inactive) | > 100 µM (inactive) | > 100 µM (inactive) | > 100 µM (inactive) | > 100 µM (inactive) | > 100 µM (inactive) | > 100 µM (inactive) | > 100 µM (inactive) | > 100 µM (inactive) | – |
| O=C1Oc2ccccc2C(=O)/C1=C/N1C(=O)/C(=C/c2ccc3c(c2)OCO3)SC1=S | 28.5 µM (inactive) | 15.8 | 26.9 µM (inactive) | 14.6 µM (inactive) | – | 13.6 µM (inactive) | 33.3 µM (inactive) | 17.9 µM (inactive) | 18.7 µM (inactive) | 11.8 µM (inactive) | 16.8 µM (inactive) | 0.405 µM (active) | 16.6 µM (inactive) | 17.6 µM (inactive) | 15.8 µM (inactive) | 13.7 µM (inactive) | 17.2 µM (inactive) | – | – | 17.3 µM (inactive) |
| CC(C)CCCC(C)[C@H]1CC[C@H]2n3c(nc4ccccc43)CCC[C@]12C (stereo not given in full) | – | 15 | 13.6 µM (inactive) | 20.7 µM (inactive) | 17.7 µM (inactive) | 17 µM (inactive) | 32.7 µM (inactive) | 16.2 µM (inactive) | 19.3 µM (inactive) | 16.9 µM (inactive) | 15.9 µM (inactive) | 17.4 µM (inactive) | – | 17.1 µM (inactive) | 18.6 µM (inactive) | 20.3 µM (inactive) | 17.2 µM (inactive) | 19.4 µM (inactive) | 14.3 µM (inactive) | – |
| COC(c1ccc(C(C)(C)C)cc1)(c1ccc(C(C)(C)C)cc1)c1ccc(C(C)(C)C)cc1 | > 100 µM (inactive) | > 100 | > 100 µM (inactive) | > 100 µM (inactive) | – | > 100 µM (inactive) | > 100 µM (inactive) | 70.5 µM (inactive) | > 100 µM (inactive) | > 100 µM (inactive) | > 100 µM (inactive) | > 100 µM (inactive) | > 100 µM (inactive) | > 100 µM (inactive) | > 100 µM (inactive) | > 100 µM (inactive) | > 100 µM (inactive) | > 100 µM (inactive) | > 100 µM (inactive) | > 100 µM (inactive) |
| Nc1nc(N)c2cc(Sc3ccc4ccccc4c3)ccc2n1 | 2.96 µM (inactive) | 0.643 | 1.38 µM (inactive) | 3.56 µM (inactive) | 1.14 µM (inactive) | – | 0.627 µM (active) | 1.23 µM (inactive) | 0.687 µM (active) | 5.82 µM (inactive) | 0.682 µM (active) | 5.89 µM (inactive) | 3.48 µM (inactive) | 1 µM (active) | 1.87 µM (inactive) | 3.11 µM (inactive) | – | 3.48 µM (inactive) | 2.76 µM (inactive) | – |
| COc1ccc(OC(=O)N2C/C(=C\c3ccccc3)C(=O)/C(=C/c3ccccc3)C2)cc1 | 16.6 µM (inactive) | 2.79 | 0.746 µM (active) | 8.15 µM (inactive) | 19.1 µM (inactive) | 5.6 µM (inactive) | 0.962 µM (active) | 2.62 µM (inactive) | – | 5.05 µM (inactive) | 5.42 µM (inactive) | 6.85 µM (inactive) | 7.64 µM (inactive) | 2.47 µM (inactive) | 3.66 µM (inactive) | 3.67 µM (inactive) | 11.6 µM (inactive) | 4.62 µM (inactive) | 10.2 µM (inactive) | 2.9 µM (inactive) |
| CSc1ncnc2c1ncn2CC(=O)C1CCC2C3CCC4=CC(=O)CCC4(C)C3CCC12C (stereo not given) | 5.55 µM (inactive) | 4.56 | 0.28 µM (active) | 2.42 µM (inactive) | 14.8 µM (inactive) | 6.95 µM (inactive) | 4.38 µM (inactive) | 2.4 µM (inactive) | 2.96 µM (inactive) | 3.79 µM (inactive) | 4.35 µM (inactive) | 4.25 µM (inactive) | 23.9 µM (inactive) | 3.53 µM (inactive) | 2.57 µM (inactive) | 14.6 µM (inactive) | 2.98 µM (inactive) | 19.2 µM (inactive) | 0.757 µM (active) | – |
| CC(C)=NN/C(=N\c1ccc(Cl)cc1)NS(=O)(=O)c1ccc(Oc2cccc(Cl)c2C#N)cc1 | > 100 µM (inactive) | > 100 | > 100 µM (inactive) | > 100 µM (inactive) | > 100 µM (inactive) | > 100 µM (inactive) | > 100 µM (inactive) | > 100 µM (inactive) | > 100 µM (inactive) | > 100 µM (inactive) | > 100 µM (inactive) | > 100 µM (inactive) | > 100 µM (inactive) | > 100 µM (inactive) | > 100 µM (inactive) | > 100 µM (inactive) | > 100 µM (inactive) | > 100 µM (inactive) | > 100 µM (inactive) | – |
| CCN(CC)C(=S)SS(=O)(=O)c1ccc(Cl)cc1 | > 100 µM (inactive) | 31.3 | – | 22.7 µM (inactive) | 16.9 µM (inactive) | – | 15.4 µM (inactive) | 17.3 µM (inactive) | 20.5 µM (inactive) | 38.5 µM (inactive) | 29 µM (inactive) | 31.7 µM (inactive) | 44 µM (inactive) | 16.9 µM (inactive) | – | 53 µM (inactive) | 65.6 µM (inactive) | 38.3 µM (inactive) | 17.7 µM (inactive) | > 100 µM (inactive) |
| CN(C)CCCn1c2ccccc2c2cnccc21 | 36.1 µM (inactive) | 43.7 | 23.6 µM (inactive) | 60.4 µM (inactive) | 94.6 µM (inactive) | 64.7 µM (inactive) | 24.2 µM (inactive) | 16.6 µM (inactive) | 28.3 µM (inactive) | 39.5 µM (inactive) | 23.9 µM (inactive) | 42.9 µM (inactive) | 38.4 µM (inactive) | 55.3 µM (inactive) | 32.3 µM (inactive) | 50.7 µM (inactive) | 45.5 µM (inactive) | 44.9 µM (inactive) | 17.5 µM (inactive) | – |
| COC(=O)C1(C)CCC(c2ccc(C)cc2)=C(CC(=O)O)C1 (stereo not given) | > 100 µM (inactive) | > 100 | > 100 µM (inactive) | > 100 µM (inactive) | > 100 µM (inactive) | > 100 µM (inactive) | > 100 µM (inactive) | > 100 µM (inactive) | > 100 µM (inactive) | > 100 µM (inactive) | > 100 µM (inactive) | > 100 µM (inactive) | > 100 µM (inactive) | > 100 µM (inactive) | > 100 µM (inactive) | > 100 µM (inactive) | > 100 µM (inactive) | > 100 µM (inactive) | – | – |
